pIC50: −log10 of the molar value.
Target: T1, human mAChR M4 (Homo sapiens, UniProt P08173)
T1 construct: expressed in transfected cells; host or cells: CHO-K1 (ATCC), stably co-expressing chimeric G protein Gqi5
T1 sequence (P08173 1-479): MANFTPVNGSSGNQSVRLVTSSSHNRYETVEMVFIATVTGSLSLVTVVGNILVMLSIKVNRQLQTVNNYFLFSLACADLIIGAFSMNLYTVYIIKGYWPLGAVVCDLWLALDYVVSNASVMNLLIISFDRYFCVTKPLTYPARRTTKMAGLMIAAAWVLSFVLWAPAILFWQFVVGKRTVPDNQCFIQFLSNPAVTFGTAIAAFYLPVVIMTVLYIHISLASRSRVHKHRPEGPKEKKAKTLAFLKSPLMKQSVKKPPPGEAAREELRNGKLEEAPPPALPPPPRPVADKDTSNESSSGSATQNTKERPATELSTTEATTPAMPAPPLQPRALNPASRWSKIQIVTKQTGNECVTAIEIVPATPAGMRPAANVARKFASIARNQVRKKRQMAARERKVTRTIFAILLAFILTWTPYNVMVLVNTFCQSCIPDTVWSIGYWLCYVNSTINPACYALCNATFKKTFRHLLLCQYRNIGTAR
Experiment: mAChR M4 cell-based functional assay (calcium mobilization, EC80 acetylcholine), human M4
Conditions: Table 10; for pIC50: M4/Gqi5/CHO-K1 cells, decrease of EC80 acetylcholine response
In short: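 CHO-K1 cells stably expressing human M4 with chimeric Gqi5; intracellular calcium rise read on FDSS as fluorescence static ratio at 1 Hz. Compounds in 10-point 1:3 dilution series; IC50 taken as concentration-dependent decrease of the EC80 acetylcholine response, four-parameter logistic fit.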

FC(F)(F)Oc1ccc(-c2ccc(N[C@H]3C[C@@H]4CN(CC5CCOCC5)C[C@@H]4C3)nn2)cc1 [Compound 184, (3aR,5s,6aS)-2-(tetrahydropyran-4-ylmethyl)-N-[6-[4-(trifluoromethoxy)phenyl]pyridazin-3-yl]-3,3a,4,5,6,6a-hexahydro-1H-cyclopenta[c]pyrrol-5-amine]
Human M4 Emin: 5% | pIC50: 7.25

Fc1ccccc1-c1ccc(N[C@H]2C[C@@H]3CN(CC4CCOCC4)C[C@@H]3C2)nn1 [Compound 185, (3aR,5s,6aS)-N-[6-(2-fluorophenyl)pyridazin-3-yl]-2-(tetrahydropyran-4-ylmethyl)-3,3a,4,5,6,6a-hexahydro-1H-cyclopenta[c]pyrrol-5-amine]
Human M4 Emin: 4% | pIC50: 9.18

Fc1ccc(-c2ccc(N[C@H]3C[C@@H]4CN(CC5CCOCC5)C[C@@H]4C3)nn2)cc1 [Compound 187, (3aR,5s,6aS)-N-[6-(4-fluorophenyl)pyridazin-3-yl]-2-(tetrahydropyran-4-ylmethyl)-3,3a,4,5,6,6a-hexahydro-1H-cyclopenta[c]pyrrol-5-amine]
Human M4 Emin: 4% | pIC50: 8.34

c1coc(-c2ccc(N[C@H]3C[C@@H]4CN(CC5CCOCC5)C[C@@H]4C3)nn2)c1 [Compound 188, (3aR,5s,6aS)-N-[6-(2-furyl)pyridazin-3-yl]-2-(tetrahydropyran-4-ylmethyl)-3,3a,4,5,6,6a-hexahydro-1H-cyclopenta[c]pyrrol-5-amine]
Human M4 Emin: 14% | pIC50: 8.10

FC1(F)CCN(c2ccc(N[C@H]3C[C@@H]4CN(CC5CCOCC5)C[C@@H]4C3)nn2)C1 [Compound 189, (3aR,5s,6aS)-N-[6-(3,3-difluoropyrrolidin-1-yl)pyridazin-3-yl]-2-(tetrahydropyran-4-ylmethyl)-3,3a,4,5,6,6a-hexahydro-1H-cyclopenta[c]pyrrol-5-amine]
Human M4 Emin: 8% | pIC50: 8.68

FC1(F)CCN(c2ccc(N[C@H]3C[C@@H]4CN(CC5CCOCC5)C[C@@H]4C3)nn2)CC1 [Compound 190, (3aR,5s,6aS)-N-[6-(4,4-difluoro-1-piperidyl)pyridazin-3-yl]-2-(tetrahydropyran-4-ylmethyl)-3,3a,4,5,6,6a-hexahydro-1H-cyclopenta[c]pyrrol-5-amine]
Human M4 Emin: 4% | pIC50: 8.78

c1cc(N2CCOCC2)nnc1N[C@H]1C[C@@H]2CN(CC3CCOCC3)C[C@@H]2C1 [Compound 191, (3aR,5s,6aS)-N-(6-morpholinopyridazin-3-yl)-2-(tetrahydropyran-4-ylmethyl)-3,3a,4,5,6,6a-hexahydro-1H-cyclopenta[c]pyrrol-5-amine]
Human M4 Emin: 5% | pIC50: 7.87

c1cc(N2CCCC2)nnc1N[C@H]1C[C@@H]2CN(CC3CCOCC3)C[C@@H]2C1 [Compound 192, (3aR,5s,6aS)-N-(6-pyrrolidin-1-ylpyridazin-3-yl)-2-(tetrahydropyran-4-ylmethyl)-3,3a,4,5,6,6a-hexahydro-1H-cyclopenta[c]pyrrol-5-amine]
Human M4 Emin: 6% | pIC50: 7.39

c1cc(N2CCCCC2)nnc1N[C@H]1C[C@@H]2CN(CC3CCOCC3)C[C@@H]2C1 [Compound 193, (3aR,5s,6aS)-N-[6-(1-piperidyl)pyridazin-3-yl]-2-(tetrahydropyran-4-ylmethyl)-3,3a,4,5,6,6a-hexahydro-1H-cyclopenta[c]pyrrol-5-amine]
Human M4 Emin: 3% | pIC50: 9.10

F[C@@H]1CCN(c2ccc(N[C@H]3C[C@@H]4CN(CC5CCOCC5)C[C@@H]4C3)nn2)C1 [Compound 194, (3aR,5s,6aS)-N-[6-[(3S)-3-fluoropyrrolidin-1-yl]pyridazin-3-yl]-2-(tetrahydropyran-4-ylmethyl)-3,3a,4,5,6,6a-hexahydro-1H-cyclopenta[c]pyrrol-5-amine]
Human M4 Emin: 5% | pIC50: 7.90

F[C@H]1CCN(c2ccc(N[C@H]3C[C@@H]4CN(CC5CCOCC5)C[C@@H]4C3)nn2)C1 [Compound 195, (3aR,5s,6aS)-N-[6-[(3R)-3-fluoropyrrolidin-1-yl]pyridazin-3-yl]-2-(tetrahydropyran-4-ylmethyl)-3,3a,4,5,6,6a-hexahydro-1H-cyclopenta[c]pyrrol-5-amine]
Human M4 Emin: 4% | pIC50: 8.04

FC1(F)CCCN(c2ccc(N[C@H]3C[C@@H]4CN(CC5CCOCC5)C[C@@H]4C3)nn2)C1 [Compound 196, (3aR,5s,6aS)-N-[6-(3,3-difluoro-1-piperidyl)pyridazin-3-yl]-2-(tetrahydropyran-4-ylmethyl)-3,3a,4,5,6,6a-hexahydro-1H-cyclopenta[c]pyrrol-5-amine]
Human M4 Emin: 4% | pIC50: 8.68

c1ccc(-c2ccc(N[C@H]3C[C@@H]4CN(CC5CCOCC5)C[C@@H]4C3)nn2)cc1 [Compound 197, (3aR,5s,6aS)-N-(6-phenylpyridazin-3-yl)-2-(tetrahydropyran-4-ylmethyl)-3,3a,4,5,6,6a-hexahydro-1H-cyclopenta[c]pyrrol-5-amine]
Human M4 Emin: 9% | pIC50: 8.90

Cc1ccc(-c2ccc(N[C@H]3C[C@@H]4CN(CC5CCOCC5)C[C@@H]4C3)nn2)cc1 [Compound 198, (3aR,5s,6aS)-N-[6-(p-tolyl)pyridazin-3-yl]-2-(tetrahydropyran-4-ylmethyl)-3,3a,4,5,6,6a-hexahydro-1H-cyclopenta[c]pyrrol-5-amine]
Human M4 Emin: 6% | pIC50: 8.40

COc1ccccc1-c1ccc(N[C@H]2C[C@@H]3CN(CC4CCOCC4)C[C@@H]3C2)nn1 [Compound 199, (3aR,5s,6aS)-N-[6-(2-methoxyphenyl)pyridazin-3-yl]-2-(tetrahydropyran-4-ylmethyl)-3,3a,4,5,6,6a-hexahydro-1H-cyclopenta[c]pyrrol-5-amine]
Human M4 Emin: 5% | pIC50: 9.24

COc1cccc(-c2ccc(N[C@H]3C[C@@H]4CN(CC5CCOCC5)C[C@@H]4C3)nn2)c1 [Compound 200, (3aR,5s,6aS)-N-[6-(3-methoxyphenyl)pyridazin-3-yl]-2-(tetrahydropyran-4-ylmethyl)-3,3a,4,5,6,6a-hexahydro-1H-cyclopenta[c]pyrrol-5-amine]
Human M4 Emin: 6% | pIC50: 8.40

COc1ccc(-c2ccc(N[C@H]3C[C@@H]4CN(CC5CCOCC5)C[C@@H]4C3)nn2)cc1 [Compound 201, (3aR,5s,6aS)-N-[6-(4-methoxyphenyl)pyridazin-3-yl]-2-(tetrahydropyran-4-ylmethyl)-3,3a,4,5,6,6a-hexahydro-1H-cyclopenta[c]pyrrol-5-amine]
Human M4 Emin: 7% | pIC50: 8.45

Fc1cccc(-c2ccc(N[C@H]3C[C@@H]4CN(CC5CCOCC5)C[C@@H]4C3)nn2)c1Cl [Compound 202, (3aR,5s,6aS)-N-[6-(2-chloro-3-fluoro-phenyl)pyridazin-3-yl]-2-(tetrahydropyran-4-ylmethyl)-3,3a,4,5,6,6a-hexahydro-1H-cyclopenta[c]pyrrol-5-amine]
Human M4 Emin: 5% | pIC50: 9.29

Fc1ccc(-c2ccc(N[C@H]3C[C@@H]4CN(CC5CCOCC5)C[C@@H]4C3)nn2)c(Cl)c1 [Compound 203, (3aR,5s,6aS)-N-[6-(2-chloro-4-fluoro-phenyl)pyridazin-3-yl]-2-(tetrahydropyran-4-ylmethyl)-3,3a,4,5,6,6a-hexahydro-1H-cyclopenta[c]pyrrol-5-amine]
Human M4 Emin: 5% | pIC50: 8.90

Fc1cccc(Cl)c1-c1ccc(N[C@H]2C[C@@H]3CN(CC4CCOCC4)C[C@@H]3C2)nn1 [Compound 204, (3aR,5s,6aS)-N-[6-(2-chloro-6-fluoro-phenyl)pyridazin-3-yl]-2-(tetrahydropyran-4-ylmethyl)-3,3a,4,5,6,6a-hexahydro-1H-cyclopenta[c]pyrrol-5-amine]
Human M4 Emin: 4% | pIC50: 9.36

Clc1ccccc1-c1ccc(N[C@H]2C[C@@H]3CN(CC4CCOCC4)C[C@@H]3C2)nn1 [Compound 205, (3aR,5s,6aS)-N-[6-(2-chlorophenyl)pyridazin-3-yl]-2-(tetrahydropyran-4-ylmethyl)-3,3a,4,5,6,6a-hexahydro-1H-cyclopenta[c]pyrrol-5-amine]
Human M4 Emin: 4% | pIC50: 9.44

CC(=O)Nc1ccccc1-c1ccc(N[C@H]2C[C@@H]3CN(CC4CCOCC4)C[C@@H]3C2)nn1 [Compound 206, N-[2-[6-[[(3aR,5s,6aS)-2-(tetrahydropyran-4-ylmethyl)-3,3a,4,5,6,6a-hexahydro-1H-cyclopenta[c]pyrrol-5-yl]amino]pyridazin-3-yl]phenyl]acetamide]
Human M4 Emin: 38% | pIC50: 7.24

CN(C)C(=O)c1ccc(-c2ccc(N[C@H]3C[C@@H]4CN(CC5CCOCC5)C[C@@H]4C3)nn2)cc1 [Compound 207, 4-[6-[[(3aR,5s,6aS)-2-(tetrahydropyran-4-ylmethyl)-3,3a,4,5,6,6a-hexahydro-1H-cyclopenta[c]pyrrol-5-yl]amino]pyridazin-3-yl]-N,N-dimethyl-benzamide]
Human M4 Emin: 16% | pIC50: 7.35
